In patent US7923579B2, “Tricyclic hydroxamate and benzamide derivatives, compositions and methods” (Exonhit Therapeutics S.A., priority 2003, dated 2011):

Columns and labels:
HDAC = conditions: read-out: HDAC activity is inhibited (reported concentration); depending of the HDAC activity assay used; cited from earlier work
[1] = tested on: HDAC activity of Hela (human cervical cancer cell line) cells nuclear extract; test: HDAC Fluorescent Activity Assay (Biomol Fluor de Lys substrate) with Hela nuclear extract; type: biochemical; conditions: read-out: IC50 (dose of compound leading to 50% of HDAC activity), Hela nuclear extract 5 μg, room temperature 0.5 h
Description: Therefore, a fast, non isotopic method has been chosen that relies on a fluorescent HDAC substrate. This assay is a two step enzymatic reaction. The substrate used is a peptidic substrate with a ε-acetylated lysyl moiety followed by a 4-methylcoumarin-7-amide (AMC) moiety at their carboxy terminus. In the first reaction catalysed by HDACs, acetate is released from ε-acetylated lysine residue. In the second reaction, the deacetylated peptides are recognized as substrate by trypsin, which cleaves the deacetylated peptide after the lysine residue. This cleavage releases the AMC and the fluorescence is monitored by a fluorometer.
In order to evaluate the effect of one compound on HDAC activity, the HDAC Fluorescent Activity Assay/Drug Discovery Kit® developed by Biomol and based on the two step enzymatic reaction described above was used with modifications. The substrate of the Biomol assay, called Fluor de Lys™, comprises an acetylated lysine side chain with an AMC moiety.
Then, 5 μg of Hela (human cervical cancer cell line) cells nuclear extract is added in each well. The enzymatic reaction is initiated by the addition of the diluted Fluor de Lys™ substrate and the microplate is incubated at room temperature (e.g. 25° C.) for 0.5 h. In order to stop the reaction and to produce the fluorophore release, 50 μl of the Fluor de Lys™ Developer solution is added in each well and the microplate is incubated at room temperature (e.g. 25° C.) for 0.25 h. Finally, the fluorescence is measured by a fluorimeter (Fluoroskan Ascent FL, Thermolabsystem) at excitation wavelength of 360 nm and emission wavelength of 460 nm.

For `CC(/C=C/C(=O)NO)=C\[C@@H](C)C(=O)c1ccc(N(C)C)cc1` [TSA, Trichostatin A], the IC50 (HDAC) is given as 1.4 to 2.6 nM.
Compound `CC1(C)CCC(C)(C)c2cc(C(=O)Nc3ccc(C(F)(F)C(=O)NO)cc3)ccc21` [EHT 4996, N-(4-((hydroxycarbamoyl)difluoromethyl)phenyl)-5,6,7,8-tetrahydro-5,5,8,8-tetramethylnaphthalene-2-carboxamide] has a melting point of 224.2 °C.
With `CC1(C)CCC(C)(C)c2cc(C(F)(F)C(=O)Nc3ccc(C(=O)NO)cc3)ccc21` [EHT 9299, 4-(2,2-Difluoro-2-(1,2,3,4-tetrahydro-1,1,4,4-tetramethylnaphthalen-7-yl)acetamido)-N-hydroxybenzamide] the IC50 [1] was 424 nM.
With `CC1(C)CCC(C)(C)c2cc(C(=O)Nc3ccc(C(=O)NO)cc3)ccc21` [EHT 3741, N-(4-(Hydroxycarbamoyl)phenyl)-5,6,7,8-tetrahydro-5,5,8,8-tetramethylnaphthalene-2-carboxamide] the IC50 [1] was 5130 nM.
With `CC1(C)CCC(C)(C)c2cc(C(F)(F)C(=O)NCc3ccc(C(=O)NO)cc3)ccc21` [EHT 7800, 4-((2,2-Difluoro-2-(1,2,3,4-tetrahydro-1,1,4,4-tetramethylnaphthalen-7-yl)acetamido)methyl)-N-hydroxybenzamide] the IC50 [1] was 4100 nM.
For `CC1(C)CCC(C)(C)c2cc(NC(=O)c3ccc(C(=O)NO)cc3)ccc21` [EHT 7706, N-(1,2,3,4-Tetrahydro-1,1,4,4-tetramethylnaphthalen-6-yl)-N′-hydroxyterephthalamide], the IC50 [1] was 1180 nM and the melting point was 211 °C.
